A short description of data set [1]: Liver microsome intrinsic clearance (human). It counts as in vitro ADME. The following applies: pH 7.4; human liver microsomes; read-out: LMS CLINT human. How it is done:
After a 5 min preincubation, the reaction was initiated by the addition of NADPH (1 mM). At selected time intervals between 0 ~ 60 min (e.g. 0, 3, 7, 15, 25, 45 and/or 60 min), aliquots were taken and subsequently placed into a 96-well plate containing cold acetonitrile with an internal standard (50 ng/mL carbamazepine). Plates were then centrifuged at 3000 rcf (4 °C) for 10 min, and the supernatant was transferred to a separate 96-well plate and diluted 1:1 with water for LC/MS/MS analysis. The in vitro half-life (T 1/2, min, Eq. 1), intrinsic clearance (CLint, mL/min/kg, Eq. 2), and subsequent predicted hepatic clearance (CLhep, mL/min/kg, Eq. 3) were determined employing the following equations: […]
where k represents the slope from linear regression analysis of the natural log percent remaining of a test compound as a function of incubation time […]
(2) CLint = in vitroT1/2 x mg microsomes x gram liver x kg body wt ascale-up factors: of 20 (human) or 45 (rat) or 87.5 (mouse) […]
where Qh (hepatic blood flow, mL/min/kg) is 21 (human) or 70 (rat) or 90 (mouse).
LC/MS/MS Bioanalysis of Samples from Plasma Protein Binding and Intrinsic Clearance […]
Samples were analyzed on a Thermo Electron TSQ Quantum Ultra triple quad mass spectrometer (San Jose, CA) via electrospray ionization (ESI) with two Themo Electron Accella pumps (San Jose, CA), and a Leap Technologies CTC PAL autosampler (Carrboro, NC). Analytes were separated by gradient elution on a dual column system with two Thermo Hypersil Gold (2.1 x 30 mm, 1.9 µm) columns (San Jose, CA) thermostated at 40 °C. HPLC mobile phase A was 0.1% formic acid in water and mobile phase B was 0.1% formic acid in acetonitrile. The gradient started […]
for 0.2 min; returned to 10% B in 0.1 min. The total run time was 1.3 min and the HPLC flow rate was 0.8 mL/min. While pump 1 ran the gradient method, pump 2 equilibrated the alternate column isocratically at 10% B. Compound optimization, data collection, and processing were performed using Thermo Electron's QuickQuan software (v2.3) and Xcalibur (v2.0.7 SP1). […]

Data set [2] in a line: Brain homogenate binding (mouse). It is filed as in vitro ADME. The protocol:
(§1) 0.3% DMSO - ΔRatio of 1 µM control compound)x100
(§2) In vitro Plasma protein binding and Brain homogenate binding: Determination of fraction unbound (f u) in plasma was conducted in vitro via equilibrium dialysis using HTDialysis (HTD) membrane plates. The top half of the plate was filled with 100 uL of Dubelco’s Phosphate Buffered Saline, pH 7.4 (DPBS). Compounds were diluted into plasma from each species (5 µM final concentration), which was aliquoted in triplicate to the ‘bottom half’ of the prepared HTD plate wells. The HTD plate was sealed and incubated for 6 hours at 37 °C. […]
(§3) The unbound fraction (f u) was calculated following the equation below, and mean values for each species were calculated from 3 replicates. […] Fraction unbound for both plasma and brain samples was determined using Equation 4. […]
(§4) The diluted fraction unbound (fu2) in brain was calculated in the same manner by using brain homogenate rather than plasma. Undiluted fraction unbound for the brain was calculated using […]
(§5) were incubated in 100 mM potassium phosphate pH 7.4 buffer with 3 mM MgCl2 at 37 °C with constant shaking. […] The in vitro half-life (T 1/2, min, Eq. 1), intrinsic clearance (CLint, mL/min/kg, Eq. 2), and subsequent predicted hepatic clearance (CLhep, mL/min/kg, Eq. 3) were determined employing the following equations: […]

Data set [3] can be described thus: Brain homogenate binding (rat). It counts as in vitro ADME. The protocol:
as §1, §2, §3, §4, §5

A further data set addresses Muscarinic M1 (Homo sapiens, UniProt P11229). Description: Eurofins lead profiling screen (radioligand binding).
Data set [4] has as its target Transporter, Serotonin (SERT) (Homo sapiens, UniProt P31645). Described as above.
The target of another data set is Serotonin (5-HT1A) (Homo sapiens, UniProt P08908). The data set is described as above.
A further data set deals with Transporter, GABA (Rattus norvegicus, UniProt P23978). The description is as above.
For data set [5], the target named is Epidermal Growth Factor (EGF) (Homo sapiens, UniProt P00533). The description is as above.
The target in the next data set is Histamine H3 (Homo sapiens, UniProt Q9Y5N1). The data set is described as above.
The target in a further data set is Serotonin (5-HT3) (Homo sapiens, UniProt P46098). Described as above.
For the next data set, the target named is Neuropeptide Y Y1 (Homo sapiens, UniProt P25929). The description is as above.
In the next data set the target is Serotonin (5-HT2B) (Homo sapiens, UniProt P41595). The data set is described as above.
Sequence of Serotonin (5-HT2B) (P41595 whole entry): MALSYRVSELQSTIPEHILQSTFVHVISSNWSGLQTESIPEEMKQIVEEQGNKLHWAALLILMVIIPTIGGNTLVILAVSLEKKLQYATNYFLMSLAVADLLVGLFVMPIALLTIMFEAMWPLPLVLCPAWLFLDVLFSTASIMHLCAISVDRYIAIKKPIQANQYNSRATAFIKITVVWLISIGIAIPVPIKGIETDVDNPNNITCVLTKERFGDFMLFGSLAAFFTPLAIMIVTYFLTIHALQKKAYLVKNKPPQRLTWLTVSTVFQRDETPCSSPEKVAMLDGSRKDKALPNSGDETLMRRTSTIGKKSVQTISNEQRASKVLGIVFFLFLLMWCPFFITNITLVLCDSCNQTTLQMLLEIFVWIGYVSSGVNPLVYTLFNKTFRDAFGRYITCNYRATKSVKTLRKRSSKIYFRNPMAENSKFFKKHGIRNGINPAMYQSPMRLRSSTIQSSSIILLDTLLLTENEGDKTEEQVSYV

Sequence of Serotonin (5-HT1A) (P08908 whole entry): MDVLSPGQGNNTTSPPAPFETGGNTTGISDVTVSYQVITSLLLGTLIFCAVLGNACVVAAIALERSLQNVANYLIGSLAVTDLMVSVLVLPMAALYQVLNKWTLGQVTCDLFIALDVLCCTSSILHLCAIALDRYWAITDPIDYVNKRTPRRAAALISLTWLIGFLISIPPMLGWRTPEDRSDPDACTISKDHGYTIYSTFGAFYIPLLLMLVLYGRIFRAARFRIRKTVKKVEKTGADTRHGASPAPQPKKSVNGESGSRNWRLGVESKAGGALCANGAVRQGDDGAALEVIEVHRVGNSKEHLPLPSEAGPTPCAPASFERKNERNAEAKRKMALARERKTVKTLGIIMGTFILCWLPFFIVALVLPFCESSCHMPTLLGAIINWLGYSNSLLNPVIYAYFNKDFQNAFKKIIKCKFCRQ
Sequence of Epidermal Growth Factor (EGF) (P00533 25-1210): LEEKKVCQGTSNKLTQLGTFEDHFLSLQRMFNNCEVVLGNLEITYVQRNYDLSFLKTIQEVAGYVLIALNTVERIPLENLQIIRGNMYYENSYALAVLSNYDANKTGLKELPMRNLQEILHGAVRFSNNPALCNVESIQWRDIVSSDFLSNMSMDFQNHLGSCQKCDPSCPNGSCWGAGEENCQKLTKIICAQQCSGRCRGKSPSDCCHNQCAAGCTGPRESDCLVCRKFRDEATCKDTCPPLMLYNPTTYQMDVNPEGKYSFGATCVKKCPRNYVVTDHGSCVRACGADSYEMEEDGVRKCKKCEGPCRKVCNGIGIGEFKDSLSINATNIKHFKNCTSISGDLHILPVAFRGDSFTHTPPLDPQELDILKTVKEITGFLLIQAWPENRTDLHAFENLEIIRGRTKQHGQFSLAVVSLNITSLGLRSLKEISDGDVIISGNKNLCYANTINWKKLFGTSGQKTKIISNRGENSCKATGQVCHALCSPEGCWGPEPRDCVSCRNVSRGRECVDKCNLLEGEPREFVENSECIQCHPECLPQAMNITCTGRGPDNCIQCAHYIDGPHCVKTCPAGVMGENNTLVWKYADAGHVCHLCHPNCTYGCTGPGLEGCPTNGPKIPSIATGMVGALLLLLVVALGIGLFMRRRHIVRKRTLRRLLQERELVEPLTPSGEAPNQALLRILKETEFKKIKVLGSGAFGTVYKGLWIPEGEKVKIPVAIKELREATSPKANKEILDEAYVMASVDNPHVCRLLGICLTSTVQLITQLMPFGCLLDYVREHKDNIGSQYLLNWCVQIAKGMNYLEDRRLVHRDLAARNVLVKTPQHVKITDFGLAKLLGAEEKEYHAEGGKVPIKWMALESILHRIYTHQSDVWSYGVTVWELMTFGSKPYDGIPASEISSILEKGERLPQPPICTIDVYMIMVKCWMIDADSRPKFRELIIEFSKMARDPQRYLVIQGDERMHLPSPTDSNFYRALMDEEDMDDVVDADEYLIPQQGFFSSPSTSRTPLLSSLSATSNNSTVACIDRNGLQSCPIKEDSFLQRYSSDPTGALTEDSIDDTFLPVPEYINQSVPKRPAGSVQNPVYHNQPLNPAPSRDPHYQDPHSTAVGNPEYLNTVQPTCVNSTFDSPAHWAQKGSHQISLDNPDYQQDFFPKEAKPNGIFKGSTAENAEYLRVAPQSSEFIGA
Sequence of Muscarinic M1 (P11229 whole entry): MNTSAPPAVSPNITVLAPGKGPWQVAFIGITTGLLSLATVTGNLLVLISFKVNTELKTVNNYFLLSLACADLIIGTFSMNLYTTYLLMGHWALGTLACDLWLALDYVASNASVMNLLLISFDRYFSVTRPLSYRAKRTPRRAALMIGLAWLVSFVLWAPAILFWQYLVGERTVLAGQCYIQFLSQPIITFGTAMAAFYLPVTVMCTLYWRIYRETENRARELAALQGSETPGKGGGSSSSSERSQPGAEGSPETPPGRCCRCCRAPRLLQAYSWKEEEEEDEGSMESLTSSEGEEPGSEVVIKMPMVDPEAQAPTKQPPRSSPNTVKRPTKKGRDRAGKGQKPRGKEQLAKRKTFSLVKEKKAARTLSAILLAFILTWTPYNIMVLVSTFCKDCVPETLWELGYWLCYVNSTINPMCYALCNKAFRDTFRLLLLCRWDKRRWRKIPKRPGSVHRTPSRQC
Sequence of Serotonin (5-HT3) (P46098 24-478): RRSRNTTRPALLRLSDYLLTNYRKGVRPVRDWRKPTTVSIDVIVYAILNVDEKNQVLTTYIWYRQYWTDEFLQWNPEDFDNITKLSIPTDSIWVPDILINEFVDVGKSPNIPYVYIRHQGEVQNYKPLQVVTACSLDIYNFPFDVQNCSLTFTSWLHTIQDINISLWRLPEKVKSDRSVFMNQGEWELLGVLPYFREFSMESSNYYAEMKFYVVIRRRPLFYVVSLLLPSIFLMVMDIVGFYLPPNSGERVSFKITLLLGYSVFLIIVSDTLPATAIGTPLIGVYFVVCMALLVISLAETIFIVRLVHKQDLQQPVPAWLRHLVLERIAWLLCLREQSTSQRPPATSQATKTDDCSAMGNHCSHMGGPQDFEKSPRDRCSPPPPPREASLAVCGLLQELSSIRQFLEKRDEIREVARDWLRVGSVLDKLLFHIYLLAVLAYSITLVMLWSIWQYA
Sequence of Histamine H3 (Q9Y5N1 whole entry): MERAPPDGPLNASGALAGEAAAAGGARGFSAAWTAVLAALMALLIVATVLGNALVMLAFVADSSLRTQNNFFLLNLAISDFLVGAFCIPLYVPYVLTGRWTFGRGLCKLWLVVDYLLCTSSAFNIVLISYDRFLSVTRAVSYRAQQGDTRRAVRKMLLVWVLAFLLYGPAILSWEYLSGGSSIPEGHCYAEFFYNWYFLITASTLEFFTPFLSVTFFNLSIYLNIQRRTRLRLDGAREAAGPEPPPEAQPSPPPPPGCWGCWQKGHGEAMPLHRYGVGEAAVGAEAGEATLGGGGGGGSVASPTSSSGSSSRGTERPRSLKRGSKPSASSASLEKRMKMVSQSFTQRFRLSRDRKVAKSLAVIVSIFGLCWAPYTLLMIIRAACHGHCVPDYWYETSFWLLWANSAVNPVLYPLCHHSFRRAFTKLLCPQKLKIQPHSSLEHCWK
Sequence of Neuropeptide Y Y1 (P25929 whole entry): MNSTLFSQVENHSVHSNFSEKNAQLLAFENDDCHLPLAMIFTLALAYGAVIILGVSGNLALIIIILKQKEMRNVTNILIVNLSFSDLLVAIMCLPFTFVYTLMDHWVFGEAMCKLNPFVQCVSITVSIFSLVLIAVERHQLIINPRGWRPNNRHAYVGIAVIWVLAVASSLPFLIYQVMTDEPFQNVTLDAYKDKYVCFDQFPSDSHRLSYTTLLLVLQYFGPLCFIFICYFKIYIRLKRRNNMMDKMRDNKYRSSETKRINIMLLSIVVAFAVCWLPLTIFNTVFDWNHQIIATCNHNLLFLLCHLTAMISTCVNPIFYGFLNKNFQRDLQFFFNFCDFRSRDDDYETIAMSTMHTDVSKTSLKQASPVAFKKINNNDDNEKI

For `Cc1cc(C#Cc2ccc(F)cc2)cnc1NC(=O)c1cc(NC(=O)OC(C)(C)C)ccc1Cl` [Compound 14c], in data set [1], the CLint scaled at 1 µM was 7.5 mL/min/kg. Moreover, the “brain homogenate binding mouse” value in data set [2] is given as 99.4%. Besides, in data set [3], the “brain homogenate binding rat” value is given as more than 99.9%.
For the molecule `O=C(NCc1ccc(OC(F)(F)F)cc1F)c1ccc2ncnn2c1` [ONO-2920632], the inhibition (commonly the change of the read-out against control, counted positive when it falls) at 10 µM on Muscarinic M1 was 4%; in data set [4] it was -3%; at Serotonin (5-HT1A), 4%; on Transporter, GABA, 19%; in data set [5], -2%; at Histamine H3 it was 4%. The inhibition at 10 µM at Serotonin (5-HT3) is -4%; on Neuropeptide Y Y1, 15%; at Serotonin (5-HT2B), 31%.

Values taken from paper PMC12067145 (ACS Medicinal Chemistry Letters, 2025).
